In patent publication US11123338B2, “C-met modulator pharmaceutical compositions” (Exelixis, Inc., priority 2010, dated 2021):

Assays:
[1] = Solid-state stability on exposure to high humidity and high temperature; assay type: physicochemical
[2] = Moisture uptake / hygroscopicity (moisture vapor isotherm); assay type: physicochemical; details: for Hygroscopicity (remark in words): salt screen summary table
Method: Moisture sorption isotherms were collected in a VTI SGA-100 Symmetric Vapor Analyzer using approximately 10 mg of sample. The sample was dried at 60° C. until the loss rate of less than or equal to 0.0005 weight percent per minute was obtained for 10 minutes. […] Equilibration at each RH was reached when the rate of less than or equal to 0.0003 weight percent per minute for 35 minutes was achieved, or at a maximum of 600 minutes.

[3] = Water solubility of free base and salts from the salt screen; details: for Solubility (remark in words): salt screen
Method: The water solubility of the various salts was determined using 10 mg solids per mL water.

[4] = Storage stability under controlled temperature / relative humidity; assay type: physicochemical
[5] = Thermal stability by DSC/TGA; assay type: physicochemical
Method: The sample (about 10-30 mg) was placed in a previously tared platinum pan. The weight of the sample was measured accurately and recorded to a thousand of a milligram. The furnace was purged with nitrogen gas at 100 mL/min. Data were collected between room temperature and 300° C. at 10° C./min heating rate.
The sample (about 2-6 mg) was weighed in an aluminum pan, accurately recorded to a hundredth of a milligram, and transferred to the DSC. The instrument was purged with nitrogen gas at 50 mL/min. Data were collected between room temperature and 300° C. at a 10° C./min heating rate.

[6] = water, thermodynamic from solid
[7] = water solubility, 10 mg solids per mL water

Hygroscopicity (remark in words) [2] | solubility [3, 6] [µg/mL] | Compound | Solubility (remark in words) ([3]; water solubility) | solubility [3, 7] [µg/mL] | also measured
Crystalline but Hygroscopic; possible | – | Cl [Chloride] | – | – | Moisture sensitivity (phase behaviour on exposure) ([1]; high humidity (75 percent RH) and high temperature (40° C.)): changing phase
– | < 1 | COc1cc2nccc(Oc3ccc(NC(=O)C4(C(=O)Nc5ccc(F)cc5)CC4)cc3)c2cc1OC [Free base, N-[4-[(6,7-Dimethoxy-4-quinolinyl)oxy]phenyl]-N′-(4-fluorophenyl)-1,1-cyclopropanedicarboxamide] | very low solubility | – | –
Crystalline but Hygroscopic. | – | Phosphate | – | 26 | Weight gain due to absorption of H2O ([2]; highest among the salts tested): 8%

The next lines start with the compound.

Compound | Hygroscopicity (remark in words) [2] | solubility [3, 6] [µg/mL] | Solubility (remark in words) ([3]; water solubility) | solubility [3, 7] [µg/mL] | also measured
COc1cc2nccc(Oc3ccc(NC(=O)C4(C(=O)Nc5ccc(F)cc5)CC4)cc3)c2cc1OC.O=C(O)C[C@@H](O)C(=O)O [L-Malate, cyclopropane-1,1-dicarboxylic acid [4-(6,7-dimethoxy-quinoline-4-yloxy)-phenyl]-amide (4-fluoro-phenyl)-amide, (L) malate salt] | Crystalline; non-Hygroscopic with no | 59 | – | – | Change in assay, purity, moisture, and dissolution ([4]; 25° C./60 percent relative humidity (RH)): no change; Change in assay, purity, moisture, and dissolution ([4]; 40° C./60 percent RH): no change; Chemical/physical stability (remark in words) ([4]; salt screen summary table): chemical/physical stability.; Solubility (remark in words) ([3]; water solubility, listed as L-malate salt, malate salt): sufficient solubility; Solid state phase and degree of crystallinity after exposure ([1]; 75 percent RH at 40° C. for 1 week): remained unchanged; Amount of water taken up ([2]; at 90 percent RH): about 0.60 weight percent; Stable up to (DSC/TGA) [5]: up to 185 °C
O=C(O)[C@H](O)[C@@H](O)C(=O)O [L-Tartrate] | Hygroscopic. | – | – | – | –
Tosylate | – | – | Crystalline salt, low solubility | 7 | –
